The experiment addresses Cyclin-dependent kinase 2 (Homo sapiens, UniProt P24941). The experiment can be described thus: Inhibition of Cyclin-dependent kinase 2 (CDK2).

SMILES strings stand for the structures.

With `CN1CCC(c2c(O)cc(O)c3c(=O)cc(Sc4ccccc4Cl)oc23)C(O)C1` (stereo unspecified), the IC50 – broadly, the concentration that inhibits the measured activity by half – was found to be 2.1 µM.

For the origin of these results see ChEMBL document CHEMBL1136795, “A computational model of binding thermodynamics: the design of cyclin-dependent kinase 2 inhibitors” (J Med Chem, 2003).
